Experimental data as given in patent US9856293B2, “Methods for inducing nestin expression of astrocytes by nestin-inducing synthetic peptides derived from the BC-box of the SOCS6 protein” (TOAGOSEI CO. LTD., priority 2013, dated 2018).
Ends that are not written are not given here.

Tests used:
Type in all cases: cell-based
[1] = tested on: astrocytes derived from rat cerebral cortex (R-CxAs-520); assay: Nestin expression inducing activity, western blot analysis of nestin and GFAP, astrocytes derived from the cerebral cortex; settings: peptide 5 μM, 2 days; for expression of GFAP compared to the culture without addition of the peptide: anti-GFAP antibody; for expression of nestin compared to the culture without addition of the peptide: anti-nestin antibody, FIG. 4
Experimental: Among the synthetic peptides obtained in Example 1, samples 1 to 3 were evaluated for nestin expression inducing activity by western blot analysis using an anti-nestin antibody. Cells used for the test were cultured cells of astrocytes derived from rat cerebral cortex (R-CxAs-520: available from Lonza). A comparative example was carried out without addition of the peptide. The evaluation test is detailed as follows.
In the same manner as in Example 4, the astrocytes derived from rat cerebral cortex were incubated in the presence of the peptide at a peptide concentration of 5 μM for 2 days. After the incubation was completed, total protein was extracted from cultured cells from each experimental sample in the same manner as in Example 3.
SDS-PAGE and western blot analysis were then carried out in the same manner as in Example 3 to examine expression of nestin and GFAP in each experimental sample. An internal standard used in the series of procedures was the GAPDH protein.
Lanes 1, 2, 3 and 4 are the results without addition of the peptide, with addition of sample 2, with addition of sample 3 and with addition of sample 1, respectively.

[2] = tested on: astrocytes derived from rat brain cerebral cortex (R-CxAs-520); assay: Nestin expression inducing activity, nestin gene expression by qRT-PCR, astrocytes derived from the cerebral cortex; settings: corrected with Actin β, peptide 10 μM, 2 days, FIG. 3
Experimental: Among the synthetic peptides obtained in Example 1, sample 1 (i.e. the nestin-inducing synthetic peptide of the present invention) was evaluated for nestin expression inducing activity by quantifying the expression level of the nestin gene. Cells used for the test were cultured cells of astrocytes derived from rat brain cerebral cortex (R-CxAs-520: available from Lonza). The evaluation test is detailed as follows.
The astrocytes derived from rat cerebral cortex were inoculated into a 6-well cell culture plate at a density of 1.0×10^5 cells/well. The cells were incubated in the AG medium overnight in a CO2 incubator at 37° C. and 5% CO2.
After the overnight incubation, the medium was replaced with an AG medium containing the peptide of sample 1 at the amount of 10 μM, and the incubation was continued under the same condition for 2 more days. A comparative example was carried out without addition of the peptide.
After the incubation was completed, total RNA was extracted from cultured cells from each experimental sample in the same manner as in Example 2. […]
The expression level of the nestin gene in each experimental sample was corrected with the expression level of Actin β in each experimental sample. The expression level of each gene is expressed as a value relative to the expression level of the gene in the sample without addition of the peptide being regarded as 1.

[3] = tested on: astrocytes derived from rat brain hippocampus (R-HiAs-521); assay: Nestin expression inducing activity, nestin gene expression by qRT-PCR, astrocytes derived from the hippocampus; settings: corrected with Actin β, peptide 5 μM, 2 days, FIG. 1
Experimental: Among the synthetic peptides obtained in Example 1, sample 1 (i.e. the nestin-inducing synthetic peptide of the present invention) was evaluated for nestin expression inducing activity by quantifying the expression level of the nestin gene. Cells used for the test were cultured cells of astrocytes derived from rat brain hippocampus (R-HiAs-521: available from Lonza). The evaluation test is detailed as follows.
The astrocytes derived from rat brain hippocampus were inoculated into a 6-well cell culture plate at a density of 1.0×10^5 cells/well. […]
After the incubation was completed, cultured cells from each experimental sample were washed with Cold PBS (−), and total RNA was extracted and purified using a commercially available RNA extraction and purification kit (NUCLEOSPIN™ RNA/Protein kit: available from Macherey Nagel). […] The purified RNA was quantified using Agilent 2100 Bioanalyzer (available from Agilent Technologies).
The purified RNA was subjected to qRT-PCR to examine the expression level of the nestin gene. […] RT-PCR employed the two-step RT-PCR method and quantitative PCR employed the TAQMAN® method. […]
The cDNA obtained in RT-PCR was then used as a template for quantitative PCR. […] Quantitative PCR reaction was carried out under the conditions of incubation at 95° C. for 10 seconds followed by 45 cycles of 95° C. for 15 seconds, 62° C. for 20 seconds and 72° C. for 20 seconds. […]

[4] = tested on: astrocytes derived from rat brain hippocampus (R-HiAs-521); assay: Nestin expression inducing activity, western blot analysis of nestin and GFAP, astrocytes derived from the hippocampus; settings: peptide 5 μM, 3 days
Experimental: Among the synthetic peptides obtained in Example 1, sample 1 (i.e. the nestin-inducing synthetic peptide of the present invention) was evaluated for nestin expression inducing activity by western blot analysis using an anti-nestin antibody. Cells used for the test were cultured cells of astrocytes derived from rat brain hippocampus (R-HiAs-521: available from Lonza). A comparative example was carried out without addition of the peptide. The evaluation test is detailed as follows.
In the same manner as in Example 2, the astrocytes derived from rat brain hippocampus were incubated in the presence of the peptide at a peptide concentration of 5 μM for 3 days. After the incubation was completed, cultured cells from each experimental sample were washed with Cold PBS (−), and total protein was extracted using a commercially available protein extraction and purification kit (NucleoSpin™ RNA/Protein kit: available from Macherey Nagel). All procedures were carried out in the absence of proteases according to the instruction attached to the kit. The concentration of the extracted protein was quantified using RC DC Protein assay (available from BIO RAD).
According to the SDS (sodium dodecyl sulphate)-polyacrylamide electrophoresis (SDS-PAGE) and western blot analysis as described below, expression of nestin and GFAP in each experimental sample was examined. An internal standard used in the series of procedures was the GAPDH protein.
Specifically, proteins obtained from each experimental sample and a molecular weight marker (MagicMark™ XP Western Protein Standard: available from Life Technologies) were injected to a well of an SDS-polyacrylamide gel (precast gel for electrophoresis: available from Oriental Instruments Co., Ltd.) and SDS-PAGE was carried out. Electrophoresis of nestin was carried out on a 7.5% SDS-polyacrylamide gel and electrophoresis of GFAP and the GAPDH protein was carried out on a 5-20% SDS-polyacrylamide gel.
The proteins separated by SDS-PAGE were transferred (blotting) onto a PVDF (polyvinylidene difluoride) membrane which was then blocked in Perfect-Block (available from MoBiTec) diluted to 5% in PBS (−) containing Tween 20™ (hereinafter referred to as PBST (−)).
Nestin, GFAP and the GAPDH protein were detected with primary antibodies, an anti-nestin antibody (murine, available from Merck Millipore), an anti-GFAP antibody (murine, available from Progen Biotechnik) and an anti-GAPDH antibody (murine, available from Merck Millipore) diluted 500-, 5000- and 10000-fold, respectively, in PBST (−) by the reaction for 1 hour at room temperature. […]
Target proteins were then detected by reaction with the ECL prime Western blotting detection reagent (available from GE Healthcare) using the Luminescent image analyser LAS-3000 (available from Fujifilm Corporation). […]

Sequence	expression of GFAP compared to the culture without addition of the peptide [1]	expression of nestin compared to the culture without addition of the peptide [1]	expression of the nestin gene compared to the culture without addition of the peptide [2]	expression of the nestin gene compared to the culture without addition of the peptide [3]	co-expression of GFAP and nestin [1]	expression of nestin, times higher than the culture without addition of the peptide [1] [times]	expression of GFAP compared to the culture without addition of the peptide ([4]; anti-GFAP antibody)	expression of nestin compared to the culture without addition of the peptide ([4]; anti-nestin antibody, FIG. 2)	co-expression of GFAP and nestin [4]	expression of nestin, times higher than the culture without addition of the peptide [4] [times]
NLQDLCRIKIRQCIGKKRTLRKNDRKKR (NLQDLCRIKIRQCIGKKRTLRKNDRKKR-NH2; cysteine pairing not given here) [sample 2, reference compound]	difference in expression of nestin or GFAP was not confirmed	difference in expression of nestin or GFAP was not confirmed	–	–	–	–	–	–	–	–
SLQYLCRFVIRQYTRKKRTLRKNDRKKR (SLQYLCRFVIRQYTRKKRTLRKNDRKKR-NH2) [sample 1]	difference in expression of GFAP was not confirmed	significant increase	significant increase	significant increase	co-expressed	≥ 2	difference in expression of GFAP was not confirmed	significant increase	co-expressed	≥ 2
TLHQQCIRVLKNNIDKKRTLRKNDRKKR (TLHQQCIRVLKNNIDKKRTLRKNDRKKR-NH2) [sample 3, reference compound]	difference in expression of nestin or GFAP was not confirmed	difference in expression of nestin or GFAP was not confirmed	–	–	–	–	–	–	–	–
